Results reported in patent US6825178B1, “Methods and products for treating pseudomonas infection” (The Brigham and Women's Hospital, Inc., priority 1996, dated 2004).
Marks after values point to notes of the source that are not given here.

Legend:
[1] = tested on: transformed human airway epithelial cells (CFT1-LCFSN line); test: Inhibition of internalization of P. aeruginosa strain 324 into CFT1-LCFSN cells (bacterial ingestion assay); type: cell-based; settings: strain 324, CFT1-LCFSN cells
From the text: Cell lines. CFT1-LCFSN cells, carrying a retrovirally introduced chromosomal copy of the wild-type human CFTR gene were kindly provided by J. Olsen, J. Yankaskis and L. Johnson from The University of North Carolina, Chapel Hill, N.C.. The cell line parental to CFT1-LCFSN is designated CFT1; it is a line of human papilloma virus 18 E6/E7 transformed bronchial epithelial cells derived from a CF patient homozygous for ΔF508 CFTR. The CFT1-LCFSN cells have normal chloride ion conductance. CFT1-ΔF508 cells are derived from CFT1 cells and carry a cDNA introduced by a retrovirus vector that encodes the ΔF508 mutant form of CFTR. Cells were grown in supplemented F-12 medium as described in 5% CO2 at 37° C.
Bacterial strains. P. aeruginosa strains used include PAO1, a well-characterized laboratory strain, and strains 149 and 324, non-mucoid, LPS-smooth clinical isolates of P. aeruginosa from CF patients early in the course of infection. Fresh cultures of P. aeruginosa grown overnight at 37° C. on a tryptic soy agar plate were suspended in supplemented medium to prepare the bacterial inoculum. Approximately 10^6 cfu of the bacterial inoculum were added per well of 10^5, epithelial cells.
Reagents for inhibition of ingestion assays. Membranes were prepared from C127 cells as described by O'Riordan et al.. Membranes were suspended in 150 mM NaCl, 50 mM Tris, pH 7.5 and 1 mM EDTA and added at the indicated concentration to suspensions of P. aeruginosa strains prior to adding this mixture to CFT1-LCFSN cells to measure bacterial uptake. Membranes from CEM/VbI cells expressing P-glycoprotein and membranes from control CEM cells lacking P-glycoprotein were obtained from James Croop of Harvard Medical School. Purified (˜85%) recombinant CFTR was obtained from Genzyme Corp., and prepared as described. The protein was solubilized in 100 mM NaCl, 10 mM Tris, pH 8.0, 2 mM di-thio-threitol and 0.1% sodium dodecyl sulfate. Monoclonal antibodies raised to synthetic peptides corresponding to the first (MAb CF3) and fourth (MAb CF4) predicted extracellular domains of CFTR, as well as a MAb specific to a peptide representing the carboxy-terminal 14 amino acids of mature CFTR (MAb CF2) were provided by Dr. George Banting, University of Bristol, Bristol, UK [12]. Synthetic peptides were obtained from Chiron Mimetopes, San Diego, Calif. Peptide GRIIASYDPDNKEER (15 amino acids) (SEQ.ID.NO. 3) represents amino acids 103-117 of mature CFTR, peptide […] (31 amino acids) (SEQ.ID.NO. 4) represents amino acids 881-911 of mature CFTR. Peptides were made up as a stock solution in F-12 medium containing 1 μM/μl based on the purity reported by the manufacturer. Peptides were diluted in F-12 tissue culture medium prior to use in assays.
Bacterial ingestion assay. Cells were released from monolayers in tissue culture flasks by 5 min. of incubation with trypsin-versene mixture (BioWhitaker, Walkersville, Md.), washed, counted and seeded into 96-well tissue culture plates at 10^5 cells/well in supplemented F-12 medium and incubated at 37° C. in 5% CO2. Fresh cultures of P. aeruginosa grown overnight at 37° C. on a tryptic soy agar plate were suspended in supplemented F-12 medium to prepare the bacterial inoculum. Then 10^6 colony forming units (cfu) of the bacterial inoculum were added per well of 10^5 epithelial cells. Bacteria were allowed to invade the epithelial cells for 3 to 4 hours at 37° C., after which nonadherent bacteria were removed by washing. The remaining steps of the assay and the steps involved in the controls have previously been described. Three to 9 replicates were obtained per point, and analyzed using analysis of variance (ANOVA) and the Fisher PLSD statistic to determine pairwise differences. […]

WI-38 cells = test: Inhibition of internalization of P. aeruginosa strain PAO1 into WI-38 cells; type: cell-based, human; settings: strain PAO1, WI 38 cells, 1 nM peptide
Procedure: WI-38 (human diploid lung cell line, ATCC. no. CCL-75) and A549 cells (human lung carcinoma cells, ATCC no. CCL-185) were obtained from the ATCC and grown according to their instructions.
Bacterial ingestion assay. Cells were released from monolayers in tissue culture flasks by 5 min. of incubation with trypsin-versene mixture (BioWhitaker, Walkersville, Md.), washed, counted and seeded into 96-well tissue culture plates at 10^5 cells/well in supplemented F-12 medium and incubated at 37° C. in 5% CO2. Fresh cultures of P. aeruginosa grown overnight at 37° C. on a tryptic soy agar plate were suspended in supplemented F-12 medium to prepare the bacterial inoculum. Then 10^6 colony forming units (cfu) of the bacterial inoculum were added per well of 10^5 epithelial cells. […] Three to 9 replicates were obtained per point, and analyzed using analysis of variance (ANOVA) and the Fisher PLSD statistic to determine pairwise differences.
Inhibition of ingestion in the presence of membranes isolated from C127 cells, monoclonal antibodies to extracellular domains of CFTR, or synthetic peptides corresponding to the first or fourth extracellular domains of CFTR was evaluated by adding these materials to the bacteria prior to adding them directly into wells for evaluation of bacterial uptake. […]

Row | Sequence | Mean cfu of P. aeruginosa internalized (standard deviation) ([1]; 0.001 nanomoles peptide) | Mean cfu of P. aeruginosa internalized (standard deviation) ([1]; 0.01 nanomoles peptide) | Mean cfu of P. aeruginosa internalized (standard deviation) ([1]; 0.1 nanomoles peptide) | Mean cfu of P. aeruginosa internalized (standard deviation) ([1]; 1 nanomoles peptide) | Mean cfu (standard deviation) of P. aeruginosa internalized (WI-38 cells)
1 | GRIIASYDPDNKEER (listed as Homo Sapiens) [First domain] | 1.3938 × 10^5 (7.6735 × 10^3) cfu | 1.405 × 10^5 (9.4323 × 10^3) cfu | 7.232 × 10^4 (5.6982 × 10^3)^a cfu | 1.462 × 10^4 (2.6955 × 10^3)^a cfu | 3.497 × 10^4 (3.751 × 10^3)^a cfu
2 | LWLLGNTPLQDKGNSTHSRNNSYAVIITSTS (listed as Homo Sapiens) [Fourth domain, reference compound] | 1.3275 × 10^5 (9.408 × 10^3) cfu | 1.412 × 10^5 (7.1986 × 10^3) cfu | 1.416 × 10^5 (1.195 × 10^4) cfu | 1.42 × 10^5 (1.746 × 10^4) cfu | 7.3433 × 10^4 (9.124 × 10^3) cfu
